Measured values: US4744985A, “Novel substances having carcinostatic and immunostimulating activity, process for preparing the same and carcinostatic agent containing the same” (Toyama Chemical Co., Ltd., priority 1979, dated 1988)

Experiments:
B-16 melanoma [1] = assay: Antitumor activity against B-16 melanoma (tumor growth); format: in vivo, BDF1 strain mice (male, 7 weeks old); settings: 20 mg/kg × 6
Description: (§1) (1) B-16 Melanoma tumor cells were subcutaneously transplanted at the armpit to BDF1 strain mice (male, 7 weeks old) in an amount of 1×10^6 cells per mouse. Subsequently, TF-133a was intraperitoneally administered to the mice in a dosage of 5 mg/kg or 10 mg/kg once a day on the first day and from the third day to the seventh day, for 6 days in total, after the transplantation of the tumor cells. In the same manner as above, 0.2 ml of a physiological salt solution was administered to the control group, and 20 mg/kg of 5-FU to the group for 5-FU administration.

B-16 melanoma [2] = assay: Metastasis of B-16 melanoma tumor cells to the lungs; format: in vivo, BDF1 strain mice (male, 7 weeks old); settings: 20 mg/kg × 6, 21st day
Description: as §1
(2) The transplantation of B-16 melanoma tumor cells and the administration of TF-132a, TF-133a, 5-FU and a physiological salt solution were carried out in the same manner as in above (1). On the 21st day after the transplantation of the tumor cells, the mice were dissected, and the metastasis of the melanoma tumor cells to the lungs was observed.

## O=c1[nH]cc(F)c(=O)[nH]1 [5-FU]
B-16 melanoma [1]
  Average tumor weight: 4.21 g
  T/C: 72%
B-16 melanoma [2]
  Average number of metastasis: 24.8
  Percentage of metastasis inhibition: 20%
